Km data for two molecules are collected here from paper PMC10108200, “Reaction Pathways for the Enzymatic Degradation of Poly(Ethylene Terephthalate): What Characterizes an Efficient PET‐Hydrolase?” (Chembiochem, 2022).

The term Km denotes the substrate concentration at which the rate is half of its maximum.

The target of this test is T1, IsP (Pseudideonella sakaiensis, UniProt A0A0K8P6T7).
T1 construct: gene ISF6_4831; heterologously expressed and purified
The test can be described thus: initial rates by RP-HPLC, Michaelis-Menten fit. The conditions noted are these: 50 °C, 10 min, 0-2 mM substrate, 0.01-0.5 μM enzyme. Format: biochemical. From the text: initial rates by RP-HPLC, Michaelis-Menten fit on IsP

T1 sequence (A0A0K8P6T7 28-290): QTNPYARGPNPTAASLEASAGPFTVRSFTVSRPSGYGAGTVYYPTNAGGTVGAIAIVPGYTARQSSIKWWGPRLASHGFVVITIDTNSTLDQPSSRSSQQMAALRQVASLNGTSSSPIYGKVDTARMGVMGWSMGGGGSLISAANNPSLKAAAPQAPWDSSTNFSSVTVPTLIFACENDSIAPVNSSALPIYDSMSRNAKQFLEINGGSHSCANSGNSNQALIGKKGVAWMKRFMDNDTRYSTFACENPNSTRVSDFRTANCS

With `O=C(O)c1ccc(C(=O)OCCOC(=O)c2ccc(C(=O)OCCOC(=O)c3ccc(C(=O)O)cc3)cc2)cc1` [TETET], the Michaelis constant (Km) is 58 ± 29 µM.

Regarding `O=C(O)c1ccc(C(=O)OCCOC(=O)c2ccc(C(=O)OCCO)cc2)cc1` [TETE], the Km worked out at 140 ± 36 µM.
